In the NIST ThermoML archive (doi:10.1016/j.jct.2008.11.012):

Experiment: xn = mol fraction of the nth substance listed
Conditions: 101 kPa, Liquid; for viscosity: Concentric cylinders viscometry; for mass density: Vibrating tube method

NCCNCCN [di(2-aminoethyl)amine] + O
Conditions | mass density [kg/m3] | viscosity [mPa·s]
293.15 K, x1 = 0.0095 | 1001.5 | 1.31
293.15 K, x1 = 0.0299 | 1004.2 | 2.076
293.15 K, x1 = 0.0565 | 1011.5 | 4.009
293.15 K, x1 = 0.0696 | 1014.5 | 5.418
293.15 K, x1 = 0.1043 | 1023.8 | 11.63
293.15 K, x1 = 0.125 | 1026.5 | 17.94
293.15 K, x1 = 0.1591 | 1030.7 | 31.07
293.15 K, x1 = 0.2076 | 1029.4 | 50.68
293.15 K, x1 = 0.2449 | 1027.5 | 59.62
293.15 K, x1 = 0.3099 | 1019.1 | 59.42
293.15 K, x1 = 0.3438 | 1014.1 | 55.52
293.15 K, x1 = 0.4112 | 1004.1 | 43.08
293.15 K, x1 = 0.4974 | 992.8 | 30.13
293.15 K, x1 = 0.6111 | 979 | 19.46
293.15 K, x1 = 0.6988 | 971.8 | 15.12
293.15 K, x1 = 0.8073 | 963.4 | 10.61
293.15 K, x1 = 0.8954 | 957.5 | 8.515
293.15 K, x1 = 1 | 951 | 7.038
303.15 K, x1 = 0.0095 | 998.6 | 1.017
303.15 K, x1 = 0.0299 | 1000.7 | 1.557
303.15 K, x1 = 0.0565 | 1007.1 | 2.841
303.15 K, x1 = 0.0696 | 1009.6 | 3.736
303.15 K, x1 = 0.1043 | 1017.1 | 7.329
303.15 K, x1 = 0.125 | 1019.8 | 10.57
303.15 K, x1 = 0.1591 | 1023 | 16.94
303.15 K, x1 = 0.2076 | 1021.4 | 25.63
303.15 K, x1 = 0.2449 | 1018.6 | 29.47
303.15 K, x1 = 0.3099 | 1010.2 | 29.55
303.15 K, x1 = 0.3438 | 1005.7 | 27.97
303.15 K, x1 = 0.4112 | 995 | 22.7
303.15 K, x1 = 0.4974 | 983.7 | 16.77
303.15 K, x1 = 0.6111 | 970.6 | 11.54
303.15 K, x1 = 0.6988 | 962.7 | 9.116
303.15 K, x1 = 0.8073 | 954.3 | 6.899
303.15 K, x1 = 0.8954 | 948.4 | 5.713
303.15 K, x1 = 1 | 942.3 | 4.804
313.15 K, x1 = 0.0095 | 994.9 | 0.8263
313.15 K, x1 = 0.0299 | 996.7 | 1.223
313.15 K, x1 = 0.0565 | 1002.2 | 2.101
313.15 K, x1 = 0.0696 | 1004.3 | 2.684
313.15 K, x1 = 0.1043 | 1010.7 | 4.877
313.15 K, x1 = 0.125 | 1012.9 | 6.69
313.15 K, x1 = 0.1591 | 1015.4 | 10.13
313.15 K, x1 = 0.2076 | 1013.2 | 14.34
313.15 K, x1 = 0.2449 | 1009.9 | 16.2
313.15 K, x1 = 0.3099 | 1001.5 | 16.32
313.15 K, x1 = 0.3438 | 997.1 | 15.61
313.15 K, x1 = 0.4112 | 986.4 | 12.99
313.15 K, x1 = 0.4974 | 975.1 | 10.17
313.15 K, x1 = 0.6111 | 962.1 | 7.375
313.15 K, x1 = 0.6988 | 954.2 | 5.944
313.15 K, x1 = 0.8073 | 947.3 | 4.741
313.15 K, x1 = 0.8954 | 939.8 | 4.017
313.15 K, x1 = 1 | 933.8 | 3.4
323.15 K, x1 = 0.0095 | 990.5 | 0.6854
323.15 K, x1 = 0.0299 | 991.7 | 0.9871
323.15 K, x1 = 0.0565 | 996.8 | 1.615
323.15 K, x1 = 0.0696 | 998.6 | 2.012
323.15 K, x1 = 0.1043 | 1004.2 | 3.423
323.15 K, x1 = 0.125 | 1005.7 | 4.514
323.15 K, x1 = 0.1591 | 1007.9 | 6.505
323.15 K, x1 = 0.2076 | 1004.8 | 8.733
323.15 K, x1 = 0.2449 | 1001.9 | 9.728
323.15 K, x1 = 0.3099 | 993.1 | 9.836
323.15 K, x1 = 0.3438 | 988.4 | 9.492
323.15 K, x1 = 0.4112 | 978 | 8.14
323.15 K, x1 = 0.4974 | 966.8 | 6.622
323.15 K, x1 = 0.6111 | 953.7 | 5.032
323.15 K, x1 = 0.6988 | 945.9 | 4.175
323.15 K, x1 = 0.8073 | 939.1 | 3.445
323.15 K, x1 = 0.8954 | 931.5 | 2.976
323.15 K, x1 = 1 | 925.5 | 2.695
333.15 K, x1 = 0.0095 | 985.5 | 0.5792
333.15 K, x1 = 0.0299 | 986.5 | 0.8166
333.15 K, x1 = 0.0565 | 991 | 1.283
333.15 K, x1 = 0.0696 | 992.4 | 1.562
333.15 K, x1 = 0.1043 | 997.2 | 2.525
333.15 K, x1 = 0.125 | 998.2 | 3.206
333.15 K, x1 = 0.1591 | 999.9 | 4.43
333.15 K, x1 = 0.2076 | 996.3 | 5.698
333.15 K, x1 = 0.2449 | 993.1 | 6.271
333.15 K, x1 = 0.3099 | 984.1 | 6.366
333.15 K, x1 = 0.3438 | 979.6 | 6.191
333.15 K, x1 = 0.4112 | 969.2 | 5.44
333.15 K, x1 = 0.4974 | 956.8 | 4.572
333.15 K, x1 = 0.6111 | 945.1 | 3.62
333.15 K, x1 = 0.6988 | 937.3 | 3.083
333.15 K, x1 = 0.8073 | 929.1 | 2.618
333.15 K, x1 = 0.8954 | 922.9 | 2.301
333.15 K, x1 = 1 | 917 | 2.109
343.15 K, x1 = 0.0095 | 980 | 0.4978
343.15 K, x1 = 0.0299 | 980.8 | 0.6873
343.15 K, x1 = 0.0565 | 984.7 | 1.044
343.15 K, x1 = 0.0696 | 985.8 | 1.244
343.15 K, x1 = 0.1043 | 990.1 | 1.919
343.15 K, x1 = 0.125 | 990.5 | 2.376
343.15 K, x1 = 0.1591 | 992.3 | 3.174
343.15 K, x1 = 0.2076 | 987.6 | 3.938
343.15 K, x1 = 0.2449 | 984.2 | 4.293
343.15 K, x1 = 0.3099 | 975.4 | 4.372
343.15 K, x1 = 0.3438 | 970.7 | 4.277
343.15 K, x1 = 0.4112 | 960.5 | 3.846
343.15 K, x1 = 0.4974 | 949.5 | 3.308
343.15 K, x1 = 0.6111 | 936.5 | 2.721
343.15 K, x1 = 0.6988 | 929.1 | 2.366
343.15 K, x1 = 0.8073 | 920.7 | 2.067
343.15 K, x1 = 0.8954 | 914.6 | 1.833
343.15 K, x1 = 1 | 908.9 | 1.703
353.15 K, x1 = 0.0095 | 973.8 | 0.4312
353.15 K, x1 = 0.0299 | 974.6 | 0.5864
353.15 K, x1 = 0.0565 | 978.1 | 0.8677
353.15 K, x1 = 0.0696 | 978.9 | 1.017
353.15 K, x1 = 0.1043 | 982.6 | 1.507
353.15 K, x1 = 0.125 | 982.3 | 1.824
353.15 K, x1 = 0.1591 | 982.9 | 2.373
353.15 K, x1 = 0.2076 | 978.5 | 2.852
353.15 K, x1 = 0.2449 | 975.1 | 3.086
353.15 K, x1 = 0.3099 | 966.3 | 3.151
353.15 K, x1 = 0.3438 | 961.7 | 3.1
353.15 K, x1 = 0.4112 | 951.7 | 2.841
353.15 K, x1 = 0.4974 | 940.8 | 2.502
353.15 K, x1 = 0.6111 | 927.8 | 2.118
353.15 K, x1 = 0.6988 | 920.4 | 1.876
353.15 K, x1 = 0.8073 | 912.2 | 1.677
353.15 K, x1 = 0.8954 | 906.1 | 1.504
353.15 K, x1 = 1 | 900.4 | 1.409
363.15 K, x1 = 0.0095 | 967.3 | 0.3693
363.15 K, x1 = 0.0299 | 967.7 | 0.4995
363.15 K, x1 = 0.0565 | 970.9 | 0.7364
363.15 K, x1 = 0.0696 | 971.7 | 0.8452
363.15 K, x1 = 0.1043 | 974.7 | 1.213
363.15 K, x1 = 0.125 | 974.2 | 1.439
363.15 K, x1 = 0.1591 | 974.2 | 1.84
363.15 K, x1 = 0.2076 | 969.5 | 2.148
363.15 K, x1 = 0.2449 | 966.1 | 2.311
363.15 K, x1 = 0.3099 | 957 | 2.365
363.15 K, x1 = 0.3438 | 952.6 | 2.337
363.15 K, x1 = 0.4112 | 942.7 | 2.176
363.15 K, x1 = 0.4974 | 931.9 | 1.955
363.15 K, x1 = 0.6111 | 919.1 | 1.696
363.15 K, x1 = 0.6988 | 911.8 | 1.526
363.15 K, x1 = 0.8073 | 903.6 | 1.387
363.15 K, x1 = 0.8954 | 897.5 | 1.26
363.15 K, x1 = 1 | 891.9 | 1.19
